Measured values published in patent US8580790B2, “(Heterocycle/condensed piperidine)-(piperazinyl)-1-alkanone or (heterocycle/condensed pyrrolidine)-(piperazinyl)-1-alkanone derivatives and use thereof as p75 inhibitors” (Sanofi, priority 2009, dated 2013).
Where a name gives a salt, the structure may show the parent alone.

Row | melting point | SMILES
1 | 155 °C | O=C(CN1CC2CCC(C1)N2c1ccc(C(F)(F)F)cn1)N1CCc2cc(-c3ccccc3)oc2C1
2 | 183 to 185 °C | O=C(CN1CC2CCC(C1)N2c1ccc(C(F)(F)F)cn1)N1CCc2nc(-c3ccncc3)sc2C1
3 | 201 to 202 °C | O=C(CN1CC2CCC(C1)N2c1ccc(-c2ncon2)cn1)N1CCc2nn(-c3ccccc3)cc2C1
4 | 165 to 168 °C | O=C(CN1CC2CCC(C1)N2c1cccnc1)N1CCc2nn(-c3ccccc3)cc2C1
5 | 197 to 198 °C | O=C(CN1CC2CCC(C1)N2c1cncnc1)N1CCc2nn(-c3ccccc3)cc2C1
6 | 147 to 149 °C | Cn1cc2c(n1)CCN(C(=O)CN1CC3CCC(C1)N3c1ncc(F)cn1)C2
7 | 252 to 253 °C | COC(=O)c1ccc(N2C3CCC2CN(CC(=O)N2Cc4nc(-c5ccccc5)sc4C2)C3)nc1
8 | 217 to 218 °C | COC(=O)c1ccc(N2C3CCC2CN(CC(=O)N2CCc4nn(-c5ccc(C(F)(F)F)cn5)cc4C2)C3)nc1
9 | 186 to 188 °C | COc1ccc(-n2cc3c(n2)CCN(C(=O)CN2CC4CCC(C2)N4c2ncc(F)cn2)C3)cc1
10 | 262 to 264 °C | O=C(O)c1ccc(N2C3CCC2CN(CC(=O)N2CCc4nc(-c5ccsc5)sc4C2)C3)nc1
11 | 194 to 195 °C | COc1ccc(-n2ncc3c2CCN(C(=O)CN2CC4CCC(C2)N4c2ncc(F)cn2)C3)cc1
12 | 122 to 123 °C | O=C(CN1CC2CCC(C1)N2c1ncc(F)cn1)N1CCc2n[nH]cc2C1
13 | 190 to 192 °C | Cc1nc(-c2ccc(N3C4CCC3CN(CC(=O)N3CCc5nc(-c6ccccc6)sc5C3)C4)nc2)no1
14 | 250 to 251 °C | O=C(O)c1ccc(N2CC3CCC(C2)N3CC(=O)N2CCc3nc(-c4ccccc4)sc3C2)nc1
15 | 193 to 194 °C | O=C(CN1CC2CCC(C1)N2c1ncc(F)cn1)N1CCc2nc(-c3ccncc3)sc2C1
16 | 176 to 179 °C | O=C(CN1CC2CCC(C1)N2c1ccc(-c2noc(=O)[nH]2)cn1)N1CCc2nn(-c3ccccc3)cc2C1
17 | 130 to 132 °C | O=C(CN1CC2CCC(C1)N2c1ncc(F)cn1)N1CCc2nc(-c3ccccc3)[nH]c2C1
18 | 201 to 202 °C | O=C(CN1CC2CCC(C1)N2c1ccc(-c2nnn[nH]2)cn1)N1CCc2nc(-c3ccccc3)sc2C1
19 | 212 to 213 °C | N#Cc1ccc(N2C3CCC2CN(CC(=O)N2CCc4nc(-c5ccc(F)cc5)sc4C2)C3)nc1
20 | 196 to 198 °C | O=C(CN1CC2CCC(C1)N2c1ncc(F)cn1)N1CCc2nc(-c3ccc(F)cc3)sc2C1
21 | 203 to 207 °C | COc1ccc(-c2nc3c(s2)CN(C(=O)CN2CC4CCC(C2)N4c2ncc(F)cn2)CC3)cc1
22 | 230 to 231 °C | Cn1nnc(-c2ccc(N3C4CCC3CN(CC(=O)N3CCc5nn(-c6ccccc6)cc5C3)C4)nc2)n1
23 | 70 to 71 °C | Cn1cc2c(n1)CCN(C(=O)CN1CC3CCC(C1)N3c1ccc(C(F)(F)F)cn1)C2
24 | 151 to 153 °C | C[C@@H]1CN(c2ccc(C(F)(F)F)cn2)C[C@H](C)N1CC(=O)N1CCc2nn(CC(F)(F)F)cc2C1 (as salt: oxalate) [compound 126, 2-[(2S,6R)-2,6-dimethyl-4-(5-trifluoromethylpyridin-2-yl)piperazin-1-yl]-1-[2-(2,2,2-trifluoroethyl)-2,4,6,7-tetrahydropyrazolo[4,3-c]pyridin-5-yl]ethanone]

The next lines start with the compound.

Row | SMILES | melting point
25 | O=C(O)c1ccc(N2C3CCC2CN(CC(=O)N2CCc4nc(-c5ccc(F)cc5)sc4C2)C3)nc1 | 240 to 244 °C
26 | O=C(CN1CC2CCC(C1)N2c1ccc(C(F)(F)F)cn1)N1CCc2nn(-c3ccc(C(F)(F)F)cn3)cc2C1 | 192 to 193 °C
27 | O=C(CN1CC2CCC(C1)N2c1cccnc1)N1CCc2nn(-c3ccc(C(F)(F)F)cn3)cc2C1 | 150 to 151 °C
28 | O=C(CN1CC2CCC(C1)N2c1ccc(C(F)(F)F)cn1)N1CCc2nc(-c3ccccc3)[nH]c2C1 | 150 to 152 °C
29 | O=C(CN1CC2CCC(C1)N2c1ccc(C(F)(F)F)cn1)N1CCc2nn(-c3ccccn3)cc2C1 | 170 to 171 °C
30 | O=C(CN1CC2CCC(C1)N2c1cccnc1)N1CCc2nn(-c3ccccn3)cc2C1 | 61 to 62 °C
31 | O=C(CN1CC2CCC(C1)N2c1ccc(C(F)(F)F)cn1)N1CCc2nc(-c3ccc(F)cc3)[nH]c2C1 | 148 to 150 °C
32 | O=C(OC1CCC1)c1ccc(N2C3CCC2CN(CC(=O)N2CCc4nn(-c5ccccc5)cc4C2)C3)nc1 | 176 to 177 °C
33 | CCn1cc2c(n1)CCN(C(=O)CN1CC3CCC(C1)N3c1ccc(C(F)(F)F)cn1)C2 | 99 to 100 °C
34 | O=C(CN1CC2CCC(C1)N2c1ncc(F)cn1)N1CCc2c(cnn2-c2ccccc2)C1 | 148 to 150 °C
35 | O=C(CN1CC2CCC(C1)N2c1ccc(C(F)(F)F)cn1)N1CCc2nn(-c3ccccc3)cc2C1 | 212 to 213 °C
36 | Cc1nc2c(s1)CN(C(=O)CN1CC3CCC(C1)N3c1ncc(F)cn1)CC2 | 137 to 138 °C
37 | COC(=O)c1ccc(N2C3CCC2CN(CC(=O)N2CCc4nc(-c5ccc(OC)cc5)sc4C2)C3)nc1 | 159 to 160 °C
38 | O=C(CN1CC2CCC(C1)N2c1ncc(F)cn1)N1CCc2nn(-c3ccc(C(F)(F)F)cn3)cc2C1 | 208 to 209 °C
39 | CC(C)(C)n1ncc2c1CCN(C(=O)CN1CC3CCC(C1)N3c1ncc(F)cn1)C2 | 142 to 143 °C
40 | O=C(CN1CC2CCC(C1)N2c1ncc(F)cn1)N1CCc2c(cnn2-c2ccc(F)cc2)C1 | 151 to 152 °C
41 | O=C(CN1CC2CCC(C1)N2c1ncc(F)cn1)N1CCc2cc(-c3ccccc3)oc2C1 | 165 to 167 °C
42 | O=C(CN1CC2CCC(C1)N2c1ncc(F)cn1)N1CCc2cc(-c3ccccc3)[nH]c2C1 | 240 to 242 °C
43 | COC(=O)c1ccc(N2CC3CCC(C2)N3CC(=O)N2CCc3nc(-c4ccccc4)sc3C2)nc1 | 162 to 163 °C

Row | SMILES | melting point
44 | COC(=O)c1ccc(N2CC3CCC(C2)N3CC(=O)N2CCc3nn(-c4ccccc4)cc3C2)nc1 | 157 to 158 °C
45 | O=C(CN1CC2CCC(C1)N2c1ncc(F)cn1)N1CCc2oc(-c3ccccc3)nc2C1 | 88 to 89 °C
46 | O=C(O)c1ccc(N2CC3CCC(C2)N3CC(=O)N2CCc3nn(-c4ccccc4)cc3C2)nc1 | 207 to 208 °C
47 | O=C(CN1CC2CCC(C1)N2c1ncc(F)cn1)N1CCc2nc(-c3ccccc3)ncc2C1 | 212 to 213 °C
48 | O=C(CN1CC2CCC(C1)N2c1ccc(-c2noc(=O)[nH]2)cn1)N1CCc2nc(-c3ccccc3)sc2C1 | 215 to 218 °C
49 | O=C(CN1CC2CCC(C1)N2c1ncc(F)cn1)N1CCc2sc(-c3ccccc3)nc2C1 | 180 to 184 °C
50 | O=C(CN1CC2CCC(C1)N2c1ncc(F)cn1)N1CCc2nc(-c3cccnc3)sc2C1 | 200 to 202 °C
51 | N#Cc1ccc(N2C3CCC2CN(CC(=O)N2CCc4nn(-c5ccccc5)cc4C2)C3)nc1 | 198 to 200 °C
52 | O=C(CN1CC2CCC(C1)N2c1ncc(F)cn1)N1CCc2c(cnn2-c2ccc(C(F)(F)F)cc2)C1 | 162 to 164 °C
53 | O=C(CN1CC2CCC(C1)N2c1ncc(F)cn1)N1CCc2nc(-c3ccccc3)oc2C1 | 193 °C
54 | C[C@@H]1CN(c2cncnc2)C[C@H](C)N1CC(=O)N1CCc2nn(-c3ccccc3)cc2C1 (as salt: HCl) [compound 16, 2-((2S,6R)-2,6-dimethyl-4-pyrimidin-5-yl-piperazin-1-yl)-1-(2-phenyl-2,4,6,7-tetrahydropyrazolo[4,3-c]pyridin-5-yl)ethanone] | 166 to 167 °C
55 | C[C@@H]1CN(c2ccc(C(=O)O)cn2)C[C@H](C)N1CC(=O)N1CCc2nn(-c3ccccc3)cc2C1 (as salt: HCl) [compound 21, 6-{(3S,5R)-3,5-dimethyl-4-[2-oxo-2-(2-phenyl-2,4,6,7-tetrahydropyrazolo[4,3-c]pyridin-5-yl)ethyl]piperazin-1-yl}nicotinic acid] | 209 to 211 °C
56 | COC(=O)c1ccc(N2C[C@@H](C)N(CC(=O)N3CCc4nn(-c5ccccc5)cc4C3)[C@@H](C)C2)nc1 (as salt: HCl) [compound 23, 6-{(3S,5R)-3,5-dimethyl-4-[2-oxo-2-(2-phenyl-2,4,6,7-tetrahydropyrazolo[4,3-c]pyridin-5-yl)ethyl]piperazin-1-yl}nicotinic acid methyl ester] | 210 to 212 °C
57 | O=C(CN1CCCN(c2cccnc2)CC1)N1CCc2nc(-c3ccccc3)sc2C1 (as salt: HCl) [compound 30, 1-(2-phenyl-6,7-dihydro-4H-thiazolo[5,4-c]pyridin-5-yl)-2-(4-pyridin-3-yl-[1,4]diazepan-1-yl)ethanone] | 142 to 145 °C
58 | CCOC(=O)c1ccc(N2C[C@@H](C)N(CC(=O)N3CCc4nn(-c5ccccc5)cc4C3)[C@@H](C)C2)nc1 (as salt: HCl) [compound 79, 6-{(3S,5R)-3,5-dimethyl-4-[2-oxo-2-(2-phenyl-2,4,6,7-tetrahydropyrazolo[4,3-c]pyridin-5-yl)ethyl]piperazin-1-yl}nicotinic acid ethyl ester] | 235 to 236 °C
59 | C[C@@H]1CN(c2ccc(C(F)(F)F)cn2)C[C@H](C)N1CC(=O)N1CCc2nn(C)cc2C1 (as salt: HCl) [compound 100, 2-[(2S,6R)-2,6-dimethyl-4-(5-trifluoromethylpyridin-2-yl)piperazin-1-yl]-1-(2-methyl-2,4,6,7-tetrahydropyrazolo[4,3-c]pyridin-5-yl)ethanone] | 50 to 51 °C
60 | O=C(CN1CC2CCC(C1)N2c1ncc(F)cn1)N1CCc2c(cnn2CC(F)(F)F)C1 (as salt: oxalate) | 160 to 162 °C
61 | O=C(CN1CCN(c2ccc(C(F)(F)F)cn2)C(=O)C1)N1CCc2c(cnn2CC(F)(F)F)C1 (as salt: oxalate) [compound 66, 4-{2-oxo-2-[1-(2,2,2-trifluoroethyl)-1,4,6,7-tetrahydropyrazolo[4,3-c]pyridin-5-yl]ethyl}-1-(5-trifluoromethylpyridin-2-yl)piperazin-2-one] | 82 to 83 °C
62 | C[C@@H]1CN(c2ncc(C(=O)O)cn2)C[C@H](C)N1CC(=O)N1CCc2nc(-c3ccccc3)sc2C1 (as salt: sodium) [compound 72, 2-{(3S,5R)-3,5-dimethyl-4-[2-oxo-2-(2-phenyl-6,7-dihydro-4H-thiazolo[5,4-c]pyridin-5-yl)ethyl]piperazin-1-yl}pyrimidine-5-carboxylic acid] | 269 to 272 °C
